Reference: ChEMBL document CHEMBL1143193, “A new family of H3 receptor antagonists based on the natural product Conessine” (Bioorg Med Chem Lett, 2008)
Active and inactive are the calls of the source. The calls are words filed in the database; no cut-off is given here.

Experiments:
Histamine H3 receptor = Histamine H3 receptor (Rattus norvegicus, UniProt Q9QYN8); assay: Displacement of N-[3H]methylhistamine from histamine H3 receptor in rat cortex
Homo sapiens [1] = species: Homo sapiens; assay: Selectivity for human histamine H3 receptor over human histamine H1 receptor
Homo sapiens [2] = species: Homo sapiens; assay: Selectivity for human histamine H3 receptor over human histamine H2 receptor
Homo sapiens [3] = species: Homo sapiens; assay: Selectivity for human histamine H3 receptor over human histamine H4 receptor
[4] = target: Histamine H3 receptor (Rattus norvegicus) (UniProt Q9QYN8); assay: Displacement of N-[3H]methylhistamine from histamine H3 receptor in rat cortex at < 5 uM
[5] = Oral bioavailability in rat; assay type: ADME, organism-based; conditions: in vivo
[6] = Half life in rat; assay type: ADME, organism-based; conditions: in vivo
Rattus norvegicus = species: Rattus norvegicus; assay: Inhibition of R-alpha-methylhistamine-induced drinking response in rat dipsogenia model; assay type: functional

Histamine H3 receptor, sequence (Q9QYN8 whole entry): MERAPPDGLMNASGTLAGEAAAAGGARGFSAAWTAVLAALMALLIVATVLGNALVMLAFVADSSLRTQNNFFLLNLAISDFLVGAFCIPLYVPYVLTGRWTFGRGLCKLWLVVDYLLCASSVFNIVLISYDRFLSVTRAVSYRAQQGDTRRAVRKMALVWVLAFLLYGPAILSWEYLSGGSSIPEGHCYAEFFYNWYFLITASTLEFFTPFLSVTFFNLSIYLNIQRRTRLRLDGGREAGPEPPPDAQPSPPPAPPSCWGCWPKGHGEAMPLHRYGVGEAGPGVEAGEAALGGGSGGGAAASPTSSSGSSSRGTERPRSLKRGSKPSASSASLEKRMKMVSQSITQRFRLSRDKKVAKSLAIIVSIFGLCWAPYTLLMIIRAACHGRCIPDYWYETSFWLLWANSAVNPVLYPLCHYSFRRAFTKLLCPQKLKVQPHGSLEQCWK
Histamine H3 receptor (Rattus norvegicus), sequence (Q9QYN8 whole entry): as above

Row | Compound | Ki (Histamine H3 receptor; read-out: Ki) [nM] | other results
1 | C1=C(c2ccc(CCN3CCCC3)cc2)[C@@H]2CN(Cc3ccccc3)C[C@@H]2C1 | 0.05 | Selectivity ratio (Homo sapiens [1]): > 1000; Selectivity ratio (Homo sapiens [2]): > 1000; Selectivity ratio (Homo sapiens [3]): > 1000
2 | C1=C(c2ccc(CCN3CCCC3)cc2)C2CN(c3cncnc3)CC2C1 (stereo not drawn) | 7 | –
3 | C1=C(c2ccc(CCN3CCCC3)cc2)C2CN(Cc3ccccc3)CC2C1 (stereo not drawn) | 0.3 | –
4 | C1=C(c2ccc(CCN3CCCC3)cc2)C2CN(C3CCCC3)CC2C1 (racemic) | 0.4 | –
5 | C1=C(c2ccc(CCN3CCCC3)cc2)C2CN(CC3CC3)CC2C1 (racemic) | 0.1 | Ki (Histamine H3 receptor; read-out: Log Ki (converted)): 0.112 nM
6 | C1=C(c2ccc(CCN3CCCC3)cc2)C2CN(c3ncccn3)CC2C1 (stereo not drawn) | 36 | –
7 | CC1CCCN1CCc1ccc(C2=CCC3CN(Cc4ccccc4)CC23)cc1 (stereo not drawn) | 0.05 | –
8 | O=C1CCCN1CCc1ccc(C2=CCC3CN(Cc4ccccc4)CC23)cc1 (stereo not drawn) | 310 | Ki (Histamine H3 receptor; read-out: Log Ki (converted)): 132 nM
9 | FC1(F)CCN(CCc2ccc(C3=CCC4CN(Cc5ccccc5)CC34)cc2)C1 (stereo not drawn) | 2.8 | –
10 | C1=C(c2ccc(CCN3CCOCC3)cc2)C2CN(Cc3ccccc3)CC2C1 (stereo not drawn) | 1.7 | –
11 | CC(C)N1C[C@@H]2CC=C(c3ccc(CCN4CCCC4)cc3)[C@@H]2C1 | 0.29 | –
12 | CN1CCN(CCc2ccc(C3=CCC4CN(Cc5ccccc5)CC34)cc2)CC1 (stereo not drawn) | 58 | –
13 | C1=C(c2ccc(CCN3CCc4ccccc43)cc2)C2CN(Cc3ccccc3)CC2C1 (stereo not drawn) | – | Activity [4]: inactive
14 | C1=C(c2ccc(CCN3CCCC3)cc2)[C@H]2CN(Cc3ccccc3)C[C@H]2C1 | 0.75 | –
15 | CC(C)N1CC2CC=C(c3ccc(CCN4CCCC4)cc3)C2C1 (racemic) | 0.9 | –
16 | C1=C(c2ccc(CCN3CCCC3)cc2)C2CN(c3ccccc3)CC2C1 (stereo not drawn) | 67 | –
17 | C1=C(c2ccc(CCN3CCC3)cc2)C2CN(Cc3ccccc3)CC2C1 (stereo not drawn) | 2.4 | –
18 | CN(C)CCc1ccc(C2=CCC3CN(Cc4ccccc4)CC23)cc1 (stereo not drawn) | 2.3 | –
19 | C1=C(c2ccc(CCN3CCCC3)cc2)[C@@H]2CN(C3CCCC3)C[C@@H]2C1 | 0.08 | –
20 | C1=C(c2ccc(CCN3CCCC3)cc2)[C@@H]2CN(CC3CC3)C[C@@H]2C1 | 0.07 | Selectivity ratio (Homo sapiens [1]): > 1000; Selectivity ratio (Homo sapiens [2]): > 1000; Selectivity ratio (Homo sapiens [3]): > 1000; bioavailability [5]: 78%; half-life [6]: 6 h; Activity (Rattus norvegicus): Dose-dependent effect; minimal effective dose (Rattus norvegicus; read-out: MED): 3 mg/kg
21 | OC[C@@H]1CCCN1CCc1ccc(C2=CCC3CN(Cc4ccccc4)CC23)cc1 (stereo partly drawn) | 0.16 | –
22 | C1=C(c2ccc(CCN3CCCCC3)cc2)C2CN(Cc3ccccc3)CC2C1 (stereo not drawn) | 0.4 | –
23 | C[C@H]1[C@H]2CC[C@H]3[C@@H]4CC=C5C[C@@H](N(C)C)CC[C@]5(C)[C@H]4CC[C@]23CN1C [CONESSINE] | 66 | –
24 | OC[C@H]1CCCN1CCc1ccc(C2=CCC3CN(Cc4ccccc4)CC23)cc1 (stereo partly drawn) | 0.51 | –
25 | C1=C(c2ccc(CCN3Cc4ccccc4C3)cc2)C2CN(Cc3ccccc3)CC2C1 (stereo not drawn) | 256 | –
26 | C1=C(c2ccc(CCN3CCCC3)cc2)C2CN(c3ccccn3)CC2C1 (stereo not drawn) | 2 | –
